Assay results published in patent US20180155336A1, “PROCESS FOR THE PREPARATION OF 2-{4-[2-({[2-(4-CHLOROPHENYL)-1,3-THIAZOL-4-YL]METHYL}SULFANYL)-3,5-DICYAN0-6-(PYRROLIDIN-1-YL)PYRIDIN-4-YL]PHENOXY}ETHYL-L-ALANYL-L-ALANINATE MONOHYDROCHLORIDE” (BAYER PHARMA AKTIENGESELLSCHAFT, priority 2015, published 2018).
Where a name gives a salt, the structure may show the parent alone.

Assay: Storage stability of the crystalline form
Assay type: physicochemical
From the text: The compound of the formula (I) is generally micronized and formulated in pharmacy.

stability properties (even at high atmospheric humidity): very good stability properties
can be stored without any problem (storage time): > 2 years
Compound: C[C@H](N)C(=O)N[C@@H](C)C(=O)OCCOc1ccc(-c2c(C#N)c(SCc3csc(-c4ccc(Cl)cc4)n3)nc(N3CCCC3)c2C#N)cc1 [2-{4-[2-({[2-(4-chlorophenyl)-1,3-thiazol-4-yl]methyl}sulphanyl)-3,5-dicyano-6-(pyrrolidin-1-yl)pyridin-4-yl]phenoxy}ethyl-L-alanyl L-alaninate monohydrochloride]
